Test results published in patent US11135223B2, “Compositions and methods for inhibiting Dkk-1” (YALE UNIVERSITY, priority 2016, dated 2021).

Test system: L. major
Test: Leishmania (L.) major infection model
Type: in vivo, BALB/c mice
Method: FIG. 4, comprising FIG. 4A through FIG. 4H, depicts results of experiments showing functional inhibition of Dkk-1 protects the host from chronic inflammation caused by L. major. FIG. 4A depicts a schematic diagram for Dkk-1 inhibitor treatment (10 μg/kg/time) in six-week-old female BALB/c mice. FIG. 4B depicts analysis of parasite burden in the infected foot from each mouse at day 42. FIG. 4C depicts the lesion size in the infected foot from each mouse at day 42. FIG. 4D depicts the cell count of macrophages in the infected hindfoot of mice two weeks after vehicle (n=5) or Dkk-1 inhibitor treatment (n=5) counted by flow cytometry and compared with infected (untreated) and uninfected BALB/c mice (n=3). FIG. 4E depicts results of draining lymph node cells from each mouse (n=5/group) that were stimulated with sLMAG (soluble leishmania antigen) 2 weeks after infection. FIG. 4F depicts results of draining lymph node cells from each mouse (n=5/group) were stimulated with sLMAG 6 weeks after infection. FIG. 4G depicts the CD4 cell percentage in draining lymph nodes from each group was determined by flow cytometry. FIG. 4H depicts CD4 T cell numbers in draining lymph nodes from each group was determined by flow cytometry. A representative of two independent experiments is shown. Student's t-test and one-way-ANOVA analysis with Dunnet's post-hoc test were performed. **, p<0.005, *, p<0.05.
FIG. 17, comprising FIG. 17A and FIG. 17B, depicts results of experiments showing a Dkk-1 monoclonal antibody treatment protects BALB/c mice from chronic inflammation caused by L. major. FIG. 17A depicts the number lymph node cells were in L. major infected BALB/c mice injected with a Dkk-1 monoclonal antibody or isotype control antibody. BALB/c mice were infected with L. major (2 million parasites/animal) on day 0. Dkk-1 mAb or isotype control antibody (100 μg/injection) was injected intraperitoneally into six-week-old female BALB/c mice on day −1, +1, +3, +5, +7, +9, +11, +14 (n=6). On day 14, mice were sacrificed, and their drained lymph node cells were counted. Student's t-test was performed. *,p<0.05. FIG. 17B depicts the lesion size in BALB/c mice injected with a Dkk-1 monoclonal antibody or isotype control antibody. Six-week-old female BALB/c mice were infected with L.major, and DKK-1 mAb was treated intraperitoneally on day −1, +1, +3, +5, +7, +9, +11, +14, +21 and +28. Lesion size for each mouse was measured on day 12, 22, and 32. Student's t-test was performed. *, p<0.05.
L. major WR309 strain (MHOM/IL/79/LRC-L251) was originally isolated from a human case of cutaneous leishmaniasis in Israel and has been maintained through culture and frequent passages in mice to maintain virulence. BALB/c mice were infected with 2×10^6 late stationary promastigotes isolated from a Percoll gradient. For monitoring 2 week and 6 week experiments, Dkk-1 inhibitor (10 mg/kg) or vehicle (50 μl DMSO) was injected on day −1, +1, +3, +5, +7, +9, +11 and weekly afterwards till harvest. Draining lymph nodes, nondraining lymph nodes, and plasma were collected. For ex vivo analysis, soluble Leishmania major antigen (sLMAg) was employed. Single cell suspension of draining and non-draining lymph node cells was incubated with sLMAg (equivalent to 5×10^6 organisms/ml final) for 96 hr. Supernatants were harvested and analyzed by ELISA assays. For depleting platelets, 80 μg of anti-CD42 mAb (Emfret Analytical) was injected intravenously in 100 μl PBS. Equal amounts of isotype-matched control Ab (eBioscience) was used for control group animals. Tissues from mice were harvested on day 3 post-infection for analysis.
To determine the ability of an anti-Dkk-1 monoclonal antibody (Dkk-1 mAb) to protect BALB/c mice against chronic inflammation caused by L. major, 6-week old BALB/c mice were infected with L.major (2 million parasites/animal) on day 0. A Dkk-1 mAb or isotype control antibody (100 μg/injection) was injected intraperitoneally on day −1, +1, +3, +5, +7, +9, +11, +14 (n=6). […]

[1] = BALB/c mice, infected foot, 42 days post-infection
[2] = days 14 and 42 post-infection, ex vivo stimulation of draining lymph node cells with sLMAG

`NCC1CCN(c2nccc(-c3ccc4ccccc4c3)n2)CC1` [WAY-262611, (1-(4-(naphthalen-2-yl)pyrimidin-2-yl)piperidin-4-yl)methanamine] was tested, and the “reduction of parasite survival” value (BALB/c mice, 10 mg/kg intraperitoneally, 42 days post-infection) was 11.5 fold, the lesion size [1] was “greatly reduced” and the parasite burden [1] was “greatly reduced”. For the same molecule, the “percentage of CD4 T cells in draining lymph nodes (dLN)” value (FIG. 4G) was “did not reduce”, the “number of CD4 T cells in the dLN” value (FIG. 4H) was “reduced” and the IL-4 production [2] was “notably reduced”. The IL-10 production [2] was “notably reduced” and the “Macrophage accumulation following parasite infection” value (infected hindfoot, 14 days after infection) was “diminished”.
